# Data published in patent publication US11820782B2, “Salt forms of amino pyrazine purine based selective kinase inhibitor” (FTG BIO LLC, priority 2018, dated 2023).
# Tests used:
# [1] = Equilibrium solubility in pH 6.8 0.01M phosphate buffer by HPLC; assay type: physicochemical; details: pH6.8 0.01M potassium dihydrogen phosphate buffer
# [2] = 1 week stability of shortlisted salts at 40° C./75% RH, open; assay type: physicochemical; details: after 7 days at 40° C./75% RH, open
substance,measurement,setting,value
Fumarate,Solubility in pH 6.8 buffer,[1],2.62 mg/mL
same,% purity,[2]; HPLC,95.81%
same,XRD,[2]; physical form vs initial,Same as initial form
